Test results: ChEMBL document CHEMBL5465560, “Selectivity Literature for EUbOPEN Chemogenomic Library” (2024)

Legend:
[1] = target: T1, Bone morphogenetic protein receptor type-2 (Homo sapiens) (UniProt Q13873); assay: Selectivity interaction (KinomeScan (DiscoverX)) EUB0000229b BMPR2; conditions: at 10 µM
T1 sequence (whole entry): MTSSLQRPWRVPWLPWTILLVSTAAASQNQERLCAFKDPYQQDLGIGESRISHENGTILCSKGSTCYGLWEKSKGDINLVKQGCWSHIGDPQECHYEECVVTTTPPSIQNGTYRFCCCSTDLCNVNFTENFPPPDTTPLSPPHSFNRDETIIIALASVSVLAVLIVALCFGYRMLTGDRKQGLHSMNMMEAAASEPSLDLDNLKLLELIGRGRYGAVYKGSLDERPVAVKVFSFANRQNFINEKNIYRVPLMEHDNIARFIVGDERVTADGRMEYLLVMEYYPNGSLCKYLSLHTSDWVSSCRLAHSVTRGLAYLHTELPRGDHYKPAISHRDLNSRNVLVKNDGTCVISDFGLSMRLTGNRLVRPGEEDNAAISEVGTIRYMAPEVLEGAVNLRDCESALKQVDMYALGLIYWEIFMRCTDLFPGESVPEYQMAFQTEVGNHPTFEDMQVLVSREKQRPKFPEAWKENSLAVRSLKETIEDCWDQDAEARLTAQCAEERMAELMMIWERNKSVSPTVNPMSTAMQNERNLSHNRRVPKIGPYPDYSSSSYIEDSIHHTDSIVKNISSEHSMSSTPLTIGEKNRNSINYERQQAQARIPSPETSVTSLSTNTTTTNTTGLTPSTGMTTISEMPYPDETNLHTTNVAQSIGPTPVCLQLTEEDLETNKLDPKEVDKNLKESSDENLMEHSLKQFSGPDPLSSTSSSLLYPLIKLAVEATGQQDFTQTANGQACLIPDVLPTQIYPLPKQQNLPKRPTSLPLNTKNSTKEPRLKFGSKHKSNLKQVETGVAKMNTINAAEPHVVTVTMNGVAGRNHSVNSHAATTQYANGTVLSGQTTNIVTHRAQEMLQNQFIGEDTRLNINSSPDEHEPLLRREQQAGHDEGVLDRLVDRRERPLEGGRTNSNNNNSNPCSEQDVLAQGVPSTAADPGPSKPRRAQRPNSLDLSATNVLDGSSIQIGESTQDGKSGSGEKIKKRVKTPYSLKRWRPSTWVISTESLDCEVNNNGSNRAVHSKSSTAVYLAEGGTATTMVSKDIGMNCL

[2] = target: Platelet-derived growth factor receptor beta (Homo sapiens, UniProt P09619); assay: Selectivity interaction (Kinase panel (Z-LYTE Assay)) EUB0001632a PDGFRB; conditions: at 10 µM
[3] = target: Serine/threonine-protein kinase PRP4 homolog (Homo sapiens) (UniProt Q13523); assay: Selectivity interaction (ActivX KiNativ screen (kinase selectivity in THP-1 cell lysates)) EUB0000639a PRPF4; format: subcellular; conditions: lysate, at 0.01 µM
Sequence of Serine/threonine-protein kinase PRP4 homolog (Homo sapiens) (Q13523 whole entry): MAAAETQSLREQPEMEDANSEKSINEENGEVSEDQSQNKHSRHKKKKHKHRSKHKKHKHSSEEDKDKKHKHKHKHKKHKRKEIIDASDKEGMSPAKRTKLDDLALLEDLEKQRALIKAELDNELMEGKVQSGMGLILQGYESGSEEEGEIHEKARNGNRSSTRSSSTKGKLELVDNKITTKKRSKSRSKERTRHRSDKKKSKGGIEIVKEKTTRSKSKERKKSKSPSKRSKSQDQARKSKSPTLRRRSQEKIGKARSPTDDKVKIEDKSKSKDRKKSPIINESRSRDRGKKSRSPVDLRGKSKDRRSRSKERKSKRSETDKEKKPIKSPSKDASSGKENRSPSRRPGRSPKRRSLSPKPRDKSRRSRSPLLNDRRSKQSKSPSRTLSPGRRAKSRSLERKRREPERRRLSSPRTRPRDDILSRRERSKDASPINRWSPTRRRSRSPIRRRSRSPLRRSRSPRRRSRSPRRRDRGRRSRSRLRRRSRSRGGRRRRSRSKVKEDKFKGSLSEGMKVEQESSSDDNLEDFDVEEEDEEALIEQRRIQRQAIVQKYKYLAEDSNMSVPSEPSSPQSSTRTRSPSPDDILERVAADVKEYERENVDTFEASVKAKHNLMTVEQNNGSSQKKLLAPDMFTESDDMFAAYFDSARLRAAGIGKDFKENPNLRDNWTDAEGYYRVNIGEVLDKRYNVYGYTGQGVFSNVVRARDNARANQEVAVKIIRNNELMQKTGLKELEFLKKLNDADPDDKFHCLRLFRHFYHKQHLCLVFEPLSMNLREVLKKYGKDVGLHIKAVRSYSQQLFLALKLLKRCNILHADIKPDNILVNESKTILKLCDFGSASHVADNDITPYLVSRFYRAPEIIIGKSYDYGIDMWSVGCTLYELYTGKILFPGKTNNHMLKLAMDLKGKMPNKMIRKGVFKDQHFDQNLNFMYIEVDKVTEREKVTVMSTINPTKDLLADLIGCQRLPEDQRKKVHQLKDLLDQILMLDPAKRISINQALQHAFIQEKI

[4] = target: Cyclin-dependent kinase 14 (Homo sapiens) (UniProt O94921); assay: Selectivity interaction (ActivX KiNativ screen (kinase selectivity in THP-1 cell lysates)) EUB0000639a CDK14; format: subcellular; conditions: lysate, at 1 µM
Sequence of Cyclin-dependent kinase 14 (Homo sapiens) (O94921 whole entry): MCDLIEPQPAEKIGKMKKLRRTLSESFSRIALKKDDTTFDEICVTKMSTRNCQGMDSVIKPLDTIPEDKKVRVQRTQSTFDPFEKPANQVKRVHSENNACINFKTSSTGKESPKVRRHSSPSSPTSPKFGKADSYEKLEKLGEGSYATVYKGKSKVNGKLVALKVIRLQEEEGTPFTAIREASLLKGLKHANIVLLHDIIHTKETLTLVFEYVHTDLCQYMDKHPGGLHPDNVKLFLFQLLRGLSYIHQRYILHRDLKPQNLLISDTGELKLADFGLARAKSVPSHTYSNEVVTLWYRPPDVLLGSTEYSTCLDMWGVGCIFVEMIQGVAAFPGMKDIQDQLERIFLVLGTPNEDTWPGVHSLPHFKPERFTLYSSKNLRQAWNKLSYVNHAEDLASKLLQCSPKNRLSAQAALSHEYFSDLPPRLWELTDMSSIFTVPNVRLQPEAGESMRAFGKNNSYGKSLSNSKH

[5] = target: T2, SNF-related serine/threonine-protein kinase (Homo sapiens) (UniProt Q9NRH2); assay: Selectivity interaction (ActivX KiNativ screen (kinase selectivity in THP-1 cell lysates)) EUB0000639a SNRK; format: subcellular; conditions: lysate, at 1 µM
T2 sequence (whole entry): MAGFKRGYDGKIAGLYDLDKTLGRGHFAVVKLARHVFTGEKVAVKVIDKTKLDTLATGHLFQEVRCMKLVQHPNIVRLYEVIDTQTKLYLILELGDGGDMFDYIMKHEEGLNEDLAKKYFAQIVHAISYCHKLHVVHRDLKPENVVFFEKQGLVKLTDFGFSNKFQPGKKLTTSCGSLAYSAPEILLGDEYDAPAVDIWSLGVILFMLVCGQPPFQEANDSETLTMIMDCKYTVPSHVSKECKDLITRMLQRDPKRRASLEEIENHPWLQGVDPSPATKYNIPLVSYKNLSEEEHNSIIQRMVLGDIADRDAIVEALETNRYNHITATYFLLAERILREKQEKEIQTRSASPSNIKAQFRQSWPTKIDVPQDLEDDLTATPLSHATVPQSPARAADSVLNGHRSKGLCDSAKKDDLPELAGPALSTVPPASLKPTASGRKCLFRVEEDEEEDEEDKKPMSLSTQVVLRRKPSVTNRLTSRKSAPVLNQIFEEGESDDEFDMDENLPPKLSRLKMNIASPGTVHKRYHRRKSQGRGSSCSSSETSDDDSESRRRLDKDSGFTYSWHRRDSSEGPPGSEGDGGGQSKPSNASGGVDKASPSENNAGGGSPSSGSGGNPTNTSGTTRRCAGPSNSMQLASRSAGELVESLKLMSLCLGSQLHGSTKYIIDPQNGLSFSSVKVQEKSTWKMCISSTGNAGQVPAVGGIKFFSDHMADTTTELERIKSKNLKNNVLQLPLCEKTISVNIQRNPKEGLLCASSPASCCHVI

[6] = target: Mitogen-activated protein kinase kinase kinase 4 (Homo sapiens) (UniProt Q9Y6R4); assay: Selectivity interaction (KinomeScan (DiscoverX)) EUB0001049a MAP3K4; conditions: at 1 µM
[7] = target: Serine/threonine-protein kinase N1 (Homo sapiens, UniProt Q16512); assay: Selectivity interaction (KinomeScan (DiscoverX)) EUB0000695a PKN1; conditions: at 100 nM
Sequence of Serine/threonine-protein kinase N1 (Q16512 2-942 limits assumed): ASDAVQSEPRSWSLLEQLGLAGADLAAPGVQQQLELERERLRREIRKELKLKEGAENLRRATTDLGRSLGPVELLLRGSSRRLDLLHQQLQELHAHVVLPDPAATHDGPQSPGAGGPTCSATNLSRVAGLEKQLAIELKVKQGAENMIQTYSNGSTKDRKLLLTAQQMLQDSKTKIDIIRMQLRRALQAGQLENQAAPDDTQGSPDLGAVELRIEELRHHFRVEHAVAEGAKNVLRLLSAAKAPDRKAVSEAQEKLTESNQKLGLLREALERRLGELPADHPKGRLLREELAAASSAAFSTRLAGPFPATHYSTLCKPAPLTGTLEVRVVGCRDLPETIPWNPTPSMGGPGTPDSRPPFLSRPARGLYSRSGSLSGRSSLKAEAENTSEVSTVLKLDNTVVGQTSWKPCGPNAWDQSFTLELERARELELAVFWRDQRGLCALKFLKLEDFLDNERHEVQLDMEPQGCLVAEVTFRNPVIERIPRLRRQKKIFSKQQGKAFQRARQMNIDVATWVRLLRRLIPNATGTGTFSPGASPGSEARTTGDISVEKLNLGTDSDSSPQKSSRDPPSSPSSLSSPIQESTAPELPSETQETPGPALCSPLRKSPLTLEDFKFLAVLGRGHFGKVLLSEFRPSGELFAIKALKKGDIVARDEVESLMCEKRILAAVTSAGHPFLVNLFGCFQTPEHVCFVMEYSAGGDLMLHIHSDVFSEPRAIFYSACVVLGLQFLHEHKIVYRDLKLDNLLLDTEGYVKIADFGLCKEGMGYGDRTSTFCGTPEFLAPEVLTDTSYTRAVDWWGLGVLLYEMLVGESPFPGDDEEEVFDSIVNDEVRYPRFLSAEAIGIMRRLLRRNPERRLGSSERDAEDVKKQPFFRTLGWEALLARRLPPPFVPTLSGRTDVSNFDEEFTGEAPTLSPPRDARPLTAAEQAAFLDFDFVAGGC

[8] = target: Activated CDC42 kinase 1 (Homo sapiens, UniProt Q07912); assay: Selectivity interaction (KinomeScan (DiscoverX)) EUB0000595a TNK2; conditions: at 10 µM
Sequence of Activated CDC42 kinase 1 (Q07912 whole entry, looked up): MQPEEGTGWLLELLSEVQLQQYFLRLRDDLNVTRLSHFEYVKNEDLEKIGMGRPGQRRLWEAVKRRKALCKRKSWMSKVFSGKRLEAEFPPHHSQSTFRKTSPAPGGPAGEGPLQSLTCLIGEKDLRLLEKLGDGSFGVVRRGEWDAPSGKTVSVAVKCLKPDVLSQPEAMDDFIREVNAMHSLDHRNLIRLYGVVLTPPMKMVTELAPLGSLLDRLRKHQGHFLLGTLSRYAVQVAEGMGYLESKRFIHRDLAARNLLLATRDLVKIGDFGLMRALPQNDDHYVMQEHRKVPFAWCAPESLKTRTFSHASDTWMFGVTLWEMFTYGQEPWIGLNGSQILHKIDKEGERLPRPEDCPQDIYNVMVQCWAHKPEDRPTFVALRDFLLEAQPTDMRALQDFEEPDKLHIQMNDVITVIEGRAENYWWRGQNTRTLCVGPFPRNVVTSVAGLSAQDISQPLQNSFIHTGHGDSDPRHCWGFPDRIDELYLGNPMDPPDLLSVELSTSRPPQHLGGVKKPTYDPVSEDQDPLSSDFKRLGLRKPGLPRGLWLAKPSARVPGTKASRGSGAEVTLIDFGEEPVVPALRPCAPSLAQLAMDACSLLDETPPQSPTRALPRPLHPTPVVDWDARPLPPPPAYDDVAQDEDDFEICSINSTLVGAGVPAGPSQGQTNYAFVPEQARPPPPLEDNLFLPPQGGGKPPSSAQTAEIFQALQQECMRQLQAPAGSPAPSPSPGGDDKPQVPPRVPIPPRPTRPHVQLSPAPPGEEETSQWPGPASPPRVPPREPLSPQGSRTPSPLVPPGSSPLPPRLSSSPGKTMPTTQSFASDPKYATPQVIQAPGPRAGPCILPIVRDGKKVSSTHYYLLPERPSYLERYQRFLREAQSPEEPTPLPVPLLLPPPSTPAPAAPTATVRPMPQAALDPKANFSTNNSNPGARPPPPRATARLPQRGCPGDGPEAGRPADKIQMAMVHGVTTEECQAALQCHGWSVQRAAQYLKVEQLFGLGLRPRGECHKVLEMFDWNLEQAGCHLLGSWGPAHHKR

[9] = target: T3, Serine/threonine-protein kinase 17B (Homo sapiens) (UniProt O94768); assay: Selectivity interaction (KinomeScan (DiscoverX)) EUB0000045b STK17B
T3 sequence (whole entry): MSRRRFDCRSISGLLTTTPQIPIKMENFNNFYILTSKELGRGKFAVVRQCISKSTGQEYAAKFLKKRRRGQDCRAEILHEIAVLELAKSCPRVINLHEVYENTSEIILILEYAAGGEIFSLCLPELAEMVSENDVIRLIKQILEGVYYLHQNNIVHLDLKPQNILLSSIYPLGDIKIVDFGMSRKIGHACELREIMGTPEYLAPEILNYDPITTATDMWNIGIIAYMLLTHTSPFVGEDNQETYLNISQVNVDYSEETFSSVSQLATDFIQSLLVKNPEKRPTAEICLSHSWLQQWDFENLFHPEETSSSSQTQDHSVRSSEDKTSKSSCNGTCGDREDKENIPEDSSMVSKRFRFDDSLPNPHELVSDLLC

[10] = target: Death-associated protein kinase 1 (Homo sapiens, UniProt P53355); assay: Selectivity interaction (Kinase screening (Nanosyn)) EUB0000604a DAPK1
Sequence of Death-associated protein kinase 1 (P53355 whole entry, looked up): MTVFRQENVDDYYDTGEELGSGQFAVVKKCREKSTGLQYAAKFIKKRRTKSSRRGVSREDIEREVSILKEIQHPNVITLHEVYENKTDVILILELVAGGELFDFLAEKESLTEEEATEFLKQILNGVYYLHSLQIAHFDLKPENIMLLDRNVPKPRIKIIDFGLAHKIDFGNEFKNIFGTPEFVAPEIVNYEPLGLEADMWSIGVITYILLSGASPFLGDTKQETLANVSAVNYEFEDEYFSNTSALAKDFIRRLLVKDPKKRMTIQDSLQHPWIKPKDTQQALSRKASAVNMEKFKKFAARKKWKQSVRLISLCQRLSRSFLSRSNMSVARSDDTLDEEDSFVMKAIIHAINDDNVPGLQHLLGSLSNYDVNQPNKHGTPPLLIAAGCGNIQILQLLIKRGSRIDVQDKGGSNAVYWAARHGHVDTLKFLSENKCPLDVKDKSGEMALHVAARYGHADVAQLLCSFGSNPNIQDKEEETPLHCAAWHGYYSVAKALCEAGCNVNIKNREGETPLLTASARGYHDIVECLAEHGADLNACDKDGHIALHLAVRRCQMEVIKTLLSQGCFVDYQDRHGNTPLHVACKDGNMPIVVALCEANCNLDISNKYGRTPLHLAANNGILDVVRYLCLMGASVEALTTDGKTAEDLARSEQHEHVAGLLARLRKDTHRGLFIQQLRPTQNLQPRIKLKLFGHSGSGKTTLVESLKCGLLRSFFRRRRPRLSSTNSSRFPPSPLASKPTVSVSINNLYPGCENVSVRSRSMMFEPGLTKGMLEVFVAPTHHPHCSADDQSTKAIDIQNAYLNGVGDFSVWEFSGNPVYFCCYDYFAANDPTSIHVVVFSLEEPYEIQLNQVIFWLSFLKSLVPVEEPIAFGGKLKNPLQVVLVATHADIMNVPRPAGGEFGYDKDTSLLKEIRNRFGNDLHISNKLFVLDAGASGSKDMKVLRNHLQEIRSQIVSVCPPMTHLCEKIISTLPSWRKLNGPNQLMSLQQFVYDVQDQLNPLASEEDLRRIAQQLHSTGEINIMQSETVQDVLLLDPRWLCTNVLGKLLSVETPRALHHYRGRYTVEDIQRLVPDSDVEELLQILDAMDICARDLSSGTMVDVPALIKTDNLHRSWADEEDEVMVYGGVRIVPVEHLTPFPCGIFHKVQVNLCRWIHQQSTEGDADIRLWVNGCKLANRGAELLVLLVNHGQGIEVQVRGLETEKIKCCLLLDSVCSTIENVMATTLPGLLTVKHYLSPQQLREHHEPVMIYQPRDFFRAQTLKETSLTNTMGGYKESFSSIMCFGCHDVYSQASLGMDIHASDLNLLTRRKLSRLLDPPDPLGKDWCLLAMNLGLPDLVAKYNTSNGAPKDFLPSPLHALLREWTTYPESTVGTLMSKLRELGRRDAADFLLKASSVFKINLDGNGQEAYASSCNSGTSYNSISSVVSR

[11] = target: Fibroblast growth factor receptor 2 (Homo sapiens) (UniProt P21802); assay: Selectivity interaction (KinomeScan (DiscoverX)) EUB0001619a FGFR2; conditions: at 1 µM

COc1cc(N(C)c2ccnc3ccc(C(F)(F)F)cc23)cc(OC)c1OC
% binding [1]: 94%

Cn1cc(-n2cnc3c(NCc4nc5cc(Cl)c(Cl)cc5[nH]4)nc(N4CCOCC4)nc32)cn1
% of control [2]: 12.7%

CC[C@@H]1[C@H](F)C(=O)N[C@@H]1COc1nccc2cc(C(N)=O)c(OC)cc12 [ZIMLOVISERTIB]
% of inhibition [3]: 15.8% | % of inhibition [4]: 1.6% | % of inhibition [5]: 2.6%

COc1cc(Nc2nc(C)cc(-c3cnn4nc(OC)ccc34)n2)cc(C(F)(F)F)c1
% of control [6]: 87%

Cc1cc(F)c(C(=O)Nc2cccc(-c3nncn3C(C)C)n2)cc1-n1cnc(C2CC2)c1
% of control [7]: 83%

COCC(=O)NC/C=C/c1ccc2ncnc(Nc3ccc(Oc4ccc(C)nc4)c(C)c3)c2c1 [CP-724714]
% of control [8]: 78%

C=CC(=O)Nc1cc(-n2c(=O)ccc3cnc4ccc(-c5ccc(NS(C)(=O)=O)cc5)cc4c32)ccc1C
% of control ([9]; at 1 µM): 100% | % of control ([9]; at 10 µM): 100%

Cc1cnc(Nc2ccc(F)cc2Cl)nc1-c1c[nH]c(C(=O)N[C@H](CO)c2cccc(Cl)c2)c1
% of inhibition [10]: 2%

N#Cc1cccc(-c2c[nH]c3ncnc(N4CCOCC4)c23)c1
% of control [11]: 100%
